ChEMBL document CHEMBL1201862, “PubChem BioAssay data set” (2004)
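Five concentrations, 48 hours, 96-well plates. GI50 is the concentration that inhibits growth by half.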 The source made the active and inactive calls. Cut-off read from the data, not from the text of the source: active = GI50 up to about 1.1 µM and inactive = higher.

Columns and labels:
Test in all cases: NCI anticancer screen, dose series, 48 h
RXF 393 = tested on: RXF 393
SNB-78 = tested on: SNB-78
HCC 2998 = tested on: HCC 2998
LXFL 529 = tested on: LXFL 529
SR = tested on: SR
KM-20L2 = tested on: KM-20L2
DMS-273 = tested on: DMS-273
HCT-116 = tested on: HCT-116
M19-MEL = tested on: M19-MEL
HOP-18 = tested on: HOP-18
M14 = tested on: M14
NCI-H522 = tested on: NCI-H522
Malme-3M = tested on: Malme-3M
A498 = tested on: A498
DMS-114 = tested on: DMS-114
NCI/ADR-RES = tested on: NCI/ADR-RES
NCI-H226 = tested on: NCI-H226
MCF7 = tested on: MCF7
XF498 = tested on: XF498
RXF 631 = tested on: RXF 631

Structure (SMILES) | GI50 (RXF 393) | GI50 (SNB-78) | GI50 (HCC 2998) | GI50 (LXFL 529) | GI50 (SR) | GI50 (KM-20L2) | GI50 (DMS-273) | GI50 (HCT-116) | GI50 (M19-MEL) | GI50 (HOP-18) | GI50 (M14) | GI50 (NCI-H522) | GI50 (Malme-3M) | GI50 (A498) | GI50 (DMS-114) | GI50 (NCI/ADR-RES) | GI50 (NCI-H226) | GI50 (MCF7) | GI50 (XF498) | GI50 (RXF 631)
COc1ccc(C2C(=O)C(Cl)N2Nc2nc(C)cc(O)n2)cc1OC (centres undefined) | 25.2 µM (inactive) | 21.1 µM (inactive) | 42.6 µM (inactive) | 41.3 µM (inactive) | 18.8 µM (inactive) | 37 µM (inactive) | 22.1 µM (inactive) | 36.3 µM (inactive) | 42.3 µM (inactive) | 6.41 µM (inactive) | 25.8 µM (inactive) | – | – | – | – | – | – | – | – | –
O=C1C=CC2OC(c3ccccc3)C(O)C2O1 (centres undefined) | 1.37 µM (inactive) | 7.08 µM (inactive) | 2.47 µM (inactive) | – | – | 5.98 µM (inactive) | 4.91 µM (inactive) | 2.49 µM (inactive) | 12 µM (inactive) | 0.984 µM (active) | – | 1.35 µM (inactive) | 3.02 µM (inactive) | 2.27 µM (inactive) | 4.57 µM (inactive) | 2.94 µM (inactive) | 1.48 µM (inactive) | 6.07 µM (inactive) | 2.8 µM (inactive) | –
CCN(CC)C(=O)C(C)n1cc(C)c(=O)[nH]c1=O (centres undefined) | > 100 µM (inactive) | > 100 µM (inactive) | > 100 µM (inactive) | > 100 µM (inactive) | – | > 100 µM (inactive) | > 100 µM (inactive) | > 100 µM (inactive) | > 100 µM (inactive) | – | > 100 µM (inactive) | > 100 µM (inactive) | > 100 µM (inactive) | – | > 100 µM (inactive) | – | – | – | > 100 µM (inactive) | –
CC(C)=CCc1c(O)ccc2ccc(=O)oc12 [OSTHENOL] | 38.5 µM (inactive) | 32 µM (inactive) | 45.8 µM (inactive) | – | – | > 100 µM (inactive) | 63.7 µM (inactive) | 57.4 µM (inactive) | 47.1 µM (inactive) | 43.6 µM (inactive) | – | 48.2 µM (inactive) | 38.2 µM (inactive) | 54.8 µM (inactive) | 27.9 µM (inactive) | 20.9 µM (inactive) | 47.6 µM (inactive) | 34.9 µM (inactive) | – | –
CCOC(=O)c1c(NC(=S)NCc2ccccc2)sc2c1CCN(C)C2 | – | – | – | – | – | – | – | 67.3 µM (inactive) | – | – | > 100 µM (inactive) | – | – | 59.6 µM (inactive) | – | > 100 µM (inactive) | > 100 µM (inactive) | 52.6 µM (inactive) | – | –
Cn1ncc2c(=O)[nH]c(-c3ccccc3)nc21 | > 100 µM (inactive) | > 100 µM (inactive) | > 100 µM (inactive) | – | – | > 100 µM (inactive) | > 100 µM (inactive) | – | – | < 0.01 µM (active) | > 100 µM (inactive) | > 100 µM (inactive) | > 100 µM (inactive) | – | > 100 µM (inactive) | – | – | – | > 100 µM (inactive) | > 100 µM (inactive)
CCCOC(=O)CNC(=O)OC(C)(C)C | > 100 µM (inactive) | > 100 µM (inactive) | > 100 µM (inactive) | > 100 µM (inactive) | > 100 µM (inactive) | > 100 µM (inactive) | > 100 µM (inactive) | > 100 µM (inactive) | > 100 µM (inactive) | 0.897 µM (active) | > 100 µM (inactive) | > 100 µM (inactive) | > 100 µM (inactive) | – | > 100 µM (inactive) | – | > 100 µM (inactive) | – | > 100 µM (inactive) | > 100 µM (inactive)
CSCSCC(CO)NC(=O)/C=C\c1c(C)[nH]c(=O)[nH]c1=O (centres undefined) | 26.5 µM (inactive) | 34.4 µM (inactive) | 5.57 µM (inactive) | – | – | 7.76 µM (inactive) | 37.8 µM (inactive) | 11.4 µM (inactive) | 9.75 µM (inactive) | 46.1 µM (inactive) | – | 0.959 µM (active) | 8.18 µM (inactive) | 23.6 µM (inactive) | 5.56 µM (inactive) | 19 µM (inactive) | 35 µM (inactive) | 2.19 µM (inactive) | 1.61 µM (inactive) | –
Oc1ccc(Cl)cc1C1=Nn2c(COc3ccc4c(c3)CCCC4)nnc2SC1 | 16.5 µM (inactive) | – | – | – | – | – | – | 6.56 µM (inactive) | – | – | 14.2 µM (inactive) | 6.84 µM (inactive) | > 100 µM (inactive) | 1.49 µM (inactive) | – | 14.8 µM (inactive) | – | 14.7 µM (inactive) | – | –
CC(C)C1=CC2=CC[C@@H]3[C@](C)(CCC[C@@]3(C)C(=O)O)[C@H]2CC1 [ABIETIC ACID] | > 62.1 µM (inactive) | 59.7 µM (inactive) | > 80 µM (inactive) | 64.3 µM (inactive) | > 100 µM (inactive) | 63.2 µM (inactive) | 48.1 µM (inactive) | 45.1 µM (inactive) | 59 µM (inactive) | > 75 µM (inactive) | 67.9 µM (inactive) | 45.7 µM (inactive) | > 67 µM (inactive) | 49.8 µM (inactive) | 58.9 µM (inactive) | – | 49.2 µM (inactive) | – | 73.6 µM (inactive) | 62.8 µM (inactive)
CCOC1CC2OC(=O)C1C=C2C(=O)OC (centres undefined) | – | 37.2 µM (inactive) | > 100 µM (inactive) | 15.5 µM (inactive) | – | 55.6 µM (inactive) | – | – | 37.2 µM (inactive) | 21.1 µM (inactive) | 18.5 µM (inactive) | 12 µM (inactive) | 20.5 µM (inactive) | > 100 µM (inactive) | 20.4 µM (inactive) | – | 32.7 µM (inactive) | – | 23.6 µM (inactive) | –
CCOC(=O)C1C(c2cc(OC)c(O)c(OC)c2)c2cc3c(cc2OC1(C)O)OCO3 (centres undefined) | – | 81.7 µM (inactive) | – | – | – | 64.9 µM (inactive) | 36.9 µM (inactive) | 47.3 µM (inactive) | 66.4 µM (inactive) | > 100 µM (inactive) | 74.3 µM (inactive) | – | > 100 µM (inactive) | – | – | – | – | – | 31 µM (inactive) | 75.9 µM (inactive)
O=C1OC(c2ccccc2)=N/C1=C\c1cccnc1 | > 100 µM (inactive) | – | > 100 µM (inactive) | – | 33 µM (inactive) | – | – | – | – | – | > 100 µM (inactive) | > 100 µM (inactive) | – | – | – | > 100 µM (inactive) | > 100 µM (inactive) | > 100 µM (inactive) | – | –
N/C(=N\O)N/N=C\c1ccccc1O | 7.98 µM (inactive) | 21.9 µM (inactive) | 3.24 µM (inactive) | – | – | 10.2 µM (inactive) | 4.38 µM (inactive) | 4.85 µM (inactive) | 16.6 µM (inactive) | 27.2 µM (inactive) | – | 11.8 µM (inactive) | 22.4 µM (inactive) | 8.95 µM (inactive) | 4.73 µM (inactive) | 4.14 µM (inactive) | 16 µM (inactive) | 4.32 µM (inactive) | 1.04 µM (active) | –
